Laboratory results published in patent US8324267B2, “Kinase inhibitors and the use thereof” (Forschungzentrum Karlsruhe GmbH, priority 2001, dated 2012).

What was measured:
[1] = biological target: T1, VEGFR-3 (Homo sapiens, UniProt P35916); experiment: Ligand-induced autophosphorylation in VEGFR-3-expressing PAE cells (immunoprecipitation, Western blot); format: cell-based; details: for inhibition of ligand-induced autophosphorylation of VEGFR-3: PAE/VEGFR-3 cells, VEGF-C stimulated, 0.5, 5 or 50 μM, FIG. 1
Protocol: VEGFR-2- and VEGFR-3-expressing PAE cells (pig aorta endothel cells) were incubated with 0.5 μM, 5 μM or 50 μM of the appropriate test compound. The cells were then stimulated with VEGF (VEGFR-2) or VEGF-C (VEGFR-3) or without growth factor as negative control. The cells were harvested after 15 min and immunoprecipitated with VEGFR-2 or VEGFR-3. The immunoprecipitates were blotted after electrophoresis and investigated with anti-phosphotyrosine antibody. The blots were detached and investigated with VEGFR-2 or VEGFR-3 antibody to check the loading.
PAE/VEGFR-2 or PAE/VEGFR-3 were seeded in 15 cm tissue culture tissues and cultivated to 50% confluence. The cells were then starved in serum-free medium (with 0.2% BSA) for 16-24 h (PAE/VEGFR-3) or 72 h […]. After preincubation with 5 ml of 1 mM serum-free medium (1 mM Na3VO4) and various inhibitor concentrations for 30-60 min, the cells were stimulated at 37° C. for 5 min (VEGFR-3) or 8 min (VEGFR-2). The cells were then rapidly washed twice with ice-cold PBS (with 1 mM Na3VO4) and lysed with ice-cold modified RIPA buffer (30 mM Tris-HCl, pH 7.4, 150 mM NaCl, 1 mM EDTA, 0.5% (v/v) Triton X100, 0.5% (w/v) sodium deoxycholate, 10 mM NaF) freshly prepared with 1 mM PMSF, 0.1 U/ml aprotinin, 10 ng/ml leupeptin and 5 mM Na3VO4. The cells were harvested from the plate with the aid of a rubber policeman and collected in centrifuge tubes on ice. The lysates were solubilized by forcing through a syringe with a 25 G needle, and were centrifuged at 4° C./13 000 rpm for 15 min to remove insoluble constituents.
The clear lysates were incubated with 4 μg of anti-VEGFR-2 (C-1158, Santa Cruz) or […] at 4° C. overnight.
The receptor-antibody complex was precipitated by adding 30 μl of protein A-Sepharose (Amersham)/tube and incubating at 4° C. for a further 2 hours.
The Sepharose were then centrifuged at 4° C. for 1 min and washed three times with cold washing buffer (30 mM Tris-HCl, pH 7.4, 150 mM NaCl, 1 mM EDTA, 0.5% (v/v) Triton X100, 0.5% (w/v) sodium deoxycholate, 10 mM NaF) freshly prepared with 1 mM PMSF, 0.1 U/ml aprotinin, 10 ng/ml leupeptin and 5 mM Na3VO4. The remainder of the washing buffer was removed by aspiration through a syringe provided with a 27 G needle. The Sepharose beads were resuspended in 50 μl of SDS loading buffer, boiled and loaded onto a 6% […] gel. After the electrophoretic fractionation, the proteins were fixed on an appropriate membrane by Western blotting. The blots were investigated first with the aid of an anti-phosphotyrosine antibody (RC20:HRPO, Becton Dickinson) and then the first antibody was removed again in order to investigate the blot for the protein loading with specific anti-receptor antibodies. […]

[2] = biological target: T1, VEGFR-3; experiment: In vitro tyrosine kinase assay (ELISA, GST kinase, polyGlu,Tyr 4:1 acceptor); format: biochemical; details: read-out: inhibition (−) or stimulation (+) of kinase activity relative to the control; for inhibition at 1 µg/mL: inhibitor 1 μg/ml; for inhibition at 10 µg/mL: inhibitor 10 μg/ml
Protocol: The inhibition of various receptor tyrosine kinases in vitro by MAE87, MAE106 and MAZ51 was investigated. The inhibitors were investigated in 2 different concentrations (1 μg/ml and 10 μg/ml). The inhibition is stated in %. “+”=stimulation of kinase activity relative to the control,
“−”=inhibition of kinase activity relative to the control.
The activity of the RTK inhibitors were determined with the aid of an ELISA. In this assay, the corresponding kinases were employed as recombinant GST fusion proteins (glutathione S-transferase). Synthetic polyGlu, Tyr 4:1 is used as acceptor. The ability of different concentrations of the test substances to inhibit the RTK-mediated phosphorylation of the abovementioned acceptor was assessed. All the tests were carried out in duplicate.
ELISA plates were coated with 0.2 mg/ml of polyGlu, Tyr 4:1 in 100 mM bicarbonate buffer (pH 9.6) overnight. This solution was removed and the microtiter plates were washed twice with TBS buffer (10 mM Tris-HCl, pH 8.1, 100 mM NaCl) and then blocked with 5% BSA/TBS for 30 min. 50 μl of test substance (2 or 20 μg/ml in 10% DMSO), 25 μl of GST kinase in 4× kinase buffer (200 mM HEPES, 100 mM NaCl, 80 μM Na3VO4 and 0.04% BSA) were introduced. The reaction was started by adding 25 μl of 160 μM ATP (in 40 mM MnCl2) as substrate of the kinases. The final concentrations of the test compounds is thus 1 or 10 μg/ml in 5% DMSO. The GST fusion proteins were employed in the following concentrations. VEGFR-2 50 NG/well, VEGFR-3 300 ng/well, Tie2 300 ng/well, EGFR 50 ng/well, ErbB2 200 ng/well, IGF-1R 50 ng/well, FGFR1 200 ng/well. The reaction mixture was incubated at 30° C. for 90 min. The kinase reaction was stopped by adding 50 μl of 30 mM EDTA/well. The microtiter plates were washed twice with 0.05% Tween20/TBS. Anti-phosphotyrosine antibody (1:500) was added in 0.05% Tween20/TBS (with 0.5% BSA, 0.025% skimmed milk powder and 100 μM Na3VO4) and incubated at 37° C. for 1 h. The microtiter plates were washed three times with 0.05% Tween20/TBS. The HRP-conjugated detection autibody (1:1000) was added in 0.05% Tween20/TBS (with 0.5% BSA, 0.025% skimmed milk powder and 100 μM Na3VO4) and incubated at 37° C. for 1 h. The microtiter plates were washed three times with 0.05% Tween20/TBS. ABTS (2,2′-azino-di-(3-ethylbenz-thiazoline-6-sulfonate)) substrate (Roche Diagnostics GmbH, Mannheim) was added. The OD was determined at 405 nm using an ELISA reader.

T1 sequence (P35916 25-1363): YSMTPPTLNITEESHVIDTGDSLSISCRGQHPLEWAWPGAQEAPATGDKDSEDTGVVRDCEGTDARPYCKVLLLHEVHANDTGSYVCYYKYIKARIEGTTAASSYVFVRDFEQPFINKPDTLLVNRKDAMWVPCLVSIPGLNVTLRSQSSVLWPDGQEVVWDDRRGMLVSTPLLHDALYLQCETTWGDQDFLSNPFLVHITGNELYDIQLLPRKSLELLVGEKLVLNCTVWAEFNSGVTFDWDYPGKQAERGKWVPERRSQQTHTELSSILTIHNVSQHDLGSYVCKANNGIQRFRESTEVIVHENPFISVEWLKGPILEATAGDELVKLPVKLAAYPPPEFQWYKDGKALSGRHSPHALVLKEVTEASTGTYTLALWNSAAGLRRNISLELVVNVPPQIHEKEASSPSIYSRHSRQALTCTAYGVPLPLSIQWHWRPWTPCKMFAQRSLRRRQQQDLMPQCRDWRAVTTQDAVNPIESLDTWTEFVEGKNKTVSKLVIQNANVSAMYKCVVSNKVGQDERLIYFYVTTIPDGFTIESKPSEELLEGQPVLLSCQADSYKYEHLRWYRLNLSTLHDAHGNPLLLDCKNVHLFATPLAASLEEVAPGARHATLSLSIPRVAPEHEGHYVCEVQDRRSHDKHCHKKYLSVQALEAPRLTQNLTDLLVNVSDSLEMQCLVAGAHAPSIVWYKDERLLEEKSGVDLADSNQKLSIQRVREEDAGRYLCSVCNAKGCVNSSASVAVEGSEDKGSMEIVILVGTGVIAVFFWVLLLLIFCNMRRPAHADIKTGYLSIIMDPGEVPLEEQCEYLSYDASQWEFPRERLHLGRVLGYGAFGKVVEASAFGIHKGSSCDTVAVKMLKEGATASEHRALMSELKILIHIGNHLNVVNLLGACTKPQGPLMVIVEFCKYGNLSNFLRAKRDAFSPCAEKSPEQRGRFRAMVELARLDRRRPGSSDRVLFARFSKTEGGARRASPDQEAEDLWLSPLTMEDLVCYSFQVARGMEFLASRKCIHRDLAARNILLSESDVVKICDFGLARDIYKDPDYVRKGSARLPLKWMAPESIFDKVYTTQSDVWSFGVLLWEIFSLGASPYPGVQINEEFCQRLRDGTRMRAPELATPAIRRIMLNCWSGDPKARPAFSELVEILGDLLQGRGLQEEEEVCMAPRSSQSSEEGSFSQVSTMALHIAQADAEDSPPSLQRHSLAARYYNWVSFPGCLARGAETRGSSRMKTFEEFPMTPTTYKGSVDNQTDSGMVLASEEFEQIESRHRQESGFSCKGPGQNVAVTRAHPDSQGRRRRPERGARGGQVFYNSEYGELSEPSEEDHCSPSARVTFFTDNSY

Row | Structure (SMILES) | inhibition of ligand-induced autophosphorylation of VEGFR-3 [1] | inhibition at 1 µg/mL [2] | inhibition at 10 µg/mL [2] | selectivity of inhibition of autophosphorylation, VEGFR-3 versus VEGFR-2 ([1]; 5 μM, PAE cells)
1 | O=C1Nc2ccccc2C1=Cc1ccc(O)cc1O [MAE87, 3-(2,4-Dihydroxybenzylidene)-1,3-dihydroindol-2-one] | Inhibit the Ligand-Induced Autophosphorylation | 9% | 74% | –
2 | COc1ccc(C=C2C(=O)Nc3ccccc32)cc1F [MAE106, 3-(3-Fluoro-4-methoxybenzylidene)-1,3-dihydroindole-2-one] | Inhibit the Ligand-Induced Autophosphorylation | -1% | 57% | –
3 | CN(C)c1ccc(C=C2C(=O)Nc3ccccc32)c2ccccc12 [MAZ51, 3-(4-Dimethylaminonaphthalen-1-ylmethylene)-1,3-dihydroindol-2-one] | Inhibit the Ligand-Induced Autophosphorylation | 4% | 35% | selectively inhibits VEGFR-3
